Measurements from the NIST ThermoML archive (doi:10.1016/j.tca.2018.01.023).

Assay: molar heat capacity at constant pressure
Conditions: 101.33 kPa, Crystal, Small sample (50 mg) DSC

[Ca+2].[O]=[Mo](=[O])([O-])[O-] [calcium molybdate(VI)]
Conditions | molar heat capacity at constant pressure [J/K/mol]
395.5 K | 127.3
396.4 K | 127.5
396.5 K | 127.4
397.4 K | 127.6
397.5 K | 127.6
398.4 K | 127.6
398.5 K | 127.7
399.4 K | 127.7
399.5 K | 127.8
400 K | 127.9
400.4 K | 127.8
400.5 K | 127.9
401.4 K | 127.9
401.5 K | 128
402.4 K | 128.1
402.5 K | 128.1
403.4 K | 128.2
403.5 K | 128.2
404.4 K | 128.3
404.5 K | 128.3
405.4 K | 128.5
405.5 K | 128.3
406.4 K | 128.6
406.5 K | 128.4
407.4 K | 128.7
407.5 K | 128.5
408.4 K | 128.7
408.5 K | 128.6
409.4 K | 128.8
409.5 K | 128.7
410 K | 128.9
410.4 K | 128.9
410.5 K | 128.8
411.4 K | 129
411.5 K | 128.9
412.4 K | 129
412.5 K | 129
413.4 K | 129.1
413.5 K | 129.1
414.4 K | 129.2
414.5 K | 129.2
415.4 K | 129.4
415.5 K | 129.3
416.4 K | 129.5
416.5 K | 129.4
417.4 K | 129.6
417.5 K | 129.5
418.4 K | 129.7
418.5 K | 129.6
419.4 K | 129.8
419.5 K | 129.7
420 K | 129.8
420.4 K | 129.9
420.5 K | 129.8
421.4 K | 130
421.5 K | 129.9
422.4 K | 130.1
422.5 K | 130
423.4 K | 130.2
423.5 K | 130.1
424.4 K | 130.3
424.6 K | 130.1
425.4 K | 130.4
425.6 K | 130.2
426.4 K | 130.5
426.6 K | 130.3
427.4 K | 130.6
427.6 K | 130.4
428.4 K | 130.7
428.6 K | 130.5
429.4 K | 130.7
429.6 K | 130.7
430 K | 130.7
430.4 K | 130.8
430.6 K | 130.9
431.4 K | 130.8
431.6 K | 131
432.4 K | 130.8
432.6 K | 131.1
433.4 K | 130.9
433.6 K | 131.2
434.4 K | 130.9
434.6 K | 131.3
435.4 K | 131
435.6 K | 131.3
436.4 K | 131
436.6 K | 131.3
437.4 K | 131.1
437.6 K | 131.4
438.4 K | 131.2
438.6 K | 131.4
439.4 K | 131.3
439.6 K | 131.4
440 K | 131.5
440.4 K | 131.4
440.6 K | 131.5
441.4 K | 131.5
441.6 K | 131.6
442.4 K | 131.6
442.6 K | 131.7
443.4 K | 131.7
443.6 K | 131.9
444.4 K | 131.7
444.6 K | 132
445.4 K | 131.8
445.6 K | 132.2
446.4 K | 132
446.6 K | 132.3
447.4 K | 132.1
447.6 K | 132.4
448.4 K | 132.2
448.6 K | 132.5
449.4 K | 132.3
449.6 K | 132.6
450 K | 132.4
450.4 K | 132.4
450.6 K | 132.6
451.4 K | 132.5
451.6 K | 132.6
452.4 K | 132.5
452.6 K | 132.7
453.4 K | 132.6
453.6 K | 132.7
454.4 K | 132.7
454.6 K | 132.7
455.4 K | 132.7
455.6 K | 132.7
456.4 K | 132.8
456.6 K | 132.7
457.4 K | 132.9
457.6 K | 132.8
458.4 K | 133
458.7 K | 132.9
459.4 K | 133
459.7 K | 133.1
460 K | 133.2
460.4 K | 133.1
460.7 K | 133.2
461.4 K | 133.2
461.7 K | 133.4
462.4 K | 133.3
462.7 K | 133.5
463.4 K | 133.4
463.7 K | 133.6
464.4 K | 133.5
464.7 K | 133.7
465.4 K | 133.6
465.7 K | 133.7
466.4 K | 133.6
466.7 K | 133.8
467.4 K | 133.7
467.7 K | 133.8
468.4 K | 133.8
468.7 K | 133.9
469.4 K | 133.9
469.7 K | 133.9
470 K | 133.9
470.4 K | 134
470.7 K | 133.9
471.4 K | 134
471.7 K | 134
472.4 K | 134
472.7 K | 134.1
473.4 K | 134.1
473.7 K | 134.2
474.4 K | 134.1
474.7 K | 134.3
475.4 K | 134.1
475.7 K | 134.4
476.4 K | 134.2
476.7 K | 134.4
477.4 K | 134.2
477.7 K | 134.4
478.4 K | 134.4
478.7 K | 134.5
479.4 K | 134.5
479.7 K | 134.6
480 K | 134.6
480.4 K | 134.6
480.7 K | 134.7
481.4 K | 134.7
481.7 K | 134.7
482.4 K | 134.8
482.7 K | 134.7
483.4 K | 134.9
483.7 K | 134.8
484.4 K | 135
484.7 K | 134.9
485.4 K | 135.1
485.7 K | 135
486.4 K | 135.2
486.7 K | 135.1
487.4 K | 135.2
487.7 K | 135.1
488.4 K | 135.3
488.7 K | 135.2
489.4 K | 135.4
489.7 K | 135.2
490 K | 135.3
490.4 K | 135.4
490.7 K | 135.3
491.4 K | 135.5
491.7 K | 135.4
492.4 K | 135.5
492.7 K | 135.6
493.4 K | 135.5
493.8 K | 135.7
494.4 K | 135.5
494.8 K | 135.7
